In patent US9029639B2, “Pyridazine compounds for controlling invertebrate pests” (BASF SE, priority 2009, dated 2015):

Tested on: Cowpea aphid (Aphis craccivora)
Assay: Activity against cowpea aphid (Aphis craccivora), spray on potted cowpea plants
Type: in vivo
Settings: population reduction assessed after 24, 72 and 120 hours, read-out: mortality in comparison with untreated controls
Method: II.3 Activity Against Cowpea Aphid (Aphis craccivora)
The active compounds were formulated in 50:50 (vol:vol) acetone:water. The test solution was prepared at the day of use.
Potted cowpea plants colonized with 100-150 aphids of various stages were sprayed after the pest population had been recorded. Population reduction was assesed after 24, 72, and 120 hours.

Cc1nc(C(=O)N(C)c2ccnnc2)cs1 [Compound 5, 2-Methyl-thiazole-4-carboxylic acid methyl-pyridazin-4-yl-amide]
mortality at 300 ppm: ≥ 90%
